According to ChEMBL document CHEMBL3596129, “Osthol and curcumin as inhibitors of human Pgp and multidrug efflux pumps of Staphylococcus aureus: reversing the resistance against frontline antibacterial drugs” (Medchemcomm, 2014):

Tests used:
[1] = target: T1, ATP-dependent translocase ABCB1 (Homo sapiens, UniProt P08183); test: Inhibition of P-gp in human LS180 cells at 50 uM after 90 mins by rhodamine123 cell exclusion method; assay type: cell-based; details: ls180, 1.5 h
[2] = target: T2, Quinolone resistance protein NorA (Staphylococcus aureus) (UniProt P0A0J7); test: Inhibition of NorA overexpressed in Staphylococcus aureus SA1199B assessed as ciprofloxacin MIC at 3.12 uM after 24 hrs by broth checkerboard method (reference value: 8 ug/ml)
T2 sequence (whole entry): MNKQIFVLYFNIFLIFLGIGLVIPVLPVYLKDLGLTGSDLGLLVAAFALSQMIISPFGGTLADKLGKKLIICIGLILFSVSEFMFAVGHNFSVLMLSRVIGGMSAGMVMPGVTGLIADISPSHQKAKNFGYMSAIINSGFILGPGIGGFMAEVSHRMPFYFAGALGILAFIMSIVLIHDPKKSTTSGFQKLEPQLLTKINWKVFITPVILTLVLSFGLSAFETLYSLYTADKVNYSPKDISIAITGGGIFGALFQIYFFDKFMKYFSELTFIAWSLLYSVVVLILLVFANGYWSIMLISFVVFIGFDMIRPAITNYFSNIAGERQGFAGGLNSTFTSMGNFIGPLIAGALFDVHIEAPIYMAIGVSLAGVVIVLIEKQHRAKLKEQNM

[3] = target: T2, Quinolone resistance protein NorA (Staphylococcus aureus); test: Inhibition of NorA overexpressed in Staphylococcus aureus SA1199B assessed as decrease in ciprofloxacin MIC at 3.12 uM after 24 hrs by broth checkerboard method relative to control
Staphylococcus aureus [4] = test: Inhibition of TetK overexpressed in Staphylococcus aureus K2192 assessed as tetracycline MIC at 3.12 uM after 24 hrs by broth checkerboard method (reference value: 32 ug/ml)
Staphylococcus aureus [5] = test: Inhibition of TetK overexpressed in Staphylococcus aureus K2192 assessed as decrease in tetracycline MIC at 3.12 uM after 24 hrs by broth checkerboard method relative to control
Staphylococcus aureus [6] = test: Inhibition of MsrA overexpressed in Staphylococcus aureus K2191 assessed as erythromycin MIC at 3.12 uM after 24 hrs by broth checkerboard method (reference value: 64 ug/ml)
Staphylococcus aureus [7] = test: Inhibition of MsrA overexpressed in Staphylococcus aureus K2191 assessed as decrease in erythromycin MIC at 3.12 uM after 24 hrs by broth checkerboard method relative to control
[8] = target: T3, Fluoroquinolone resistance protein (Staphylococcus aureus) (UniProt A0A0C5K5S3); test: Inhibition of MdeA overexpressed in Staphylococcus aureus Mupr-1 assessed as mupirocin MIC at 3.12 uM after 24 hrs by broth checkerboard method (reference value: 256 ug/ml)
T3 sequence (whole entry): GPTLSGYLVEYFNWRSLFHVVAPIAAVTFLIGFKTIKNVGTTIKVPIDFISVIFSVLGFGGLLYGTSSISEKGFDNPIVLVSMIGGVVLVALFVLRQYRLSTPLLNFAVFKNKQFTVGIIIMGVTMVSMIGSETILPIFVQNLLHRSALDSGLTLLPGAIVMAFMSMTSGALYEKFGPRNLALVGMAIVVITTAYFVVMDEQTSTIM

[9] = target: T3, Fluoroquinolone resistance protein (Staphylococcus aureus); test: Inhibition of MdeA overexpressed in Staphylococcus aureus Mupr-1 assessed as decrease in mupirocin MIC at 3.12 uM after 24 hrs by broth checkerboard method relative to control
[10] = target: T1, ATP-dependent translocase ABCB1; test: Inhibition of P-gp in human LS180 cells after 90 mins by rhodamine123 cell exclusion method; assay type: cell-based
P-gp [11] = test: Substrate activity at P-gp in human Caco2 cells assessed as apparent permeability across apical to basolateral side at 10 uM after 90 mins by HPLC with mass spectrometric method; assay type: ADME, cell-based; details: Caco-2
P-gp [12] = test: Substrate activity at P-gp in human Caco2 cells assessed as apparent permeability across basolateral to apical side at 10 uM after 90 mins by HPLC with mass spectrometric method; assay type: ADME, cell-based; details: Caco-2
P-gp [13] = test: Substrate activity at P-gp in human Caco2 cells assessed as efflux ratio of apparent permeability across basolateral to apical side over apical to basolateral side at 10 uM after 90 mins by HPLC with mass spectrometric method; assay type: ADME, cell-based; details: Caco-2
CYP3A4 = CYP3A4 (Homo sapiens, UniProt P08684); test: Inhibition of human CYP3A4 at 10 uM preincubated for 10 mins with cofactor followed by mixture of enzyme-substrate addition by fluorescence assay relative to control; assay type: ADME
CYP2D6 = CYP2D6 (Homo sapiens, UniProt P10635); test: Inhibition of human CYP2D6 at 10 uM preincubated for 10 mins with cofactor followed by mixture of enzyme-substrate addition by fluorescence assay relative to control; assay type: ADME
CYP2C9 = CYP2C9 (Homo sapiens, UniProt P11712); test: Inhibition of human CYP2C9 at 10 uM preincubated for 10 mins with cofactor followed by mixture of enzyme-substrate addition by fluorescence assay relative to control; assay type: ADME
CYP2C19 = CYP2C19 (Homo sapiens, UniProt P33261); test: Inhibition of human CYP2C19 at 10 uM preincubated for 10 mins with cofactor followed by mixture of enzyme-substrate addition by fluorescence assay relative to control; assay type: ADME
[14] = target: T2, Quinolone resistance protein NorA (Staphylococcus aureus); test: Inhibition of NorA overexpressed in Staphylococcus aureus SA1199B assessed as ciprofloxacin MIC at 25 uM after 24 hrs by broth checkerboard method (reference value: 8 ug/ml)
[15] = target: T2, Quinolone resistance protein NorA (Staphylococcus aureus); test: Inhibition of NorA overexpressed in Staphylococcus aureus SA1199B assessed as decrease in ciprofloxacin MIC at 25 uM after 24 hrs by broth checkerboard method relative to control
Staphylococcus aureus [16] = test: Inhibition of TetK overexpressed in Staphylococcus aureus K2192 assessed as tetracycline MIC at 25 uM after 24 hrs by broth checkerboard method (reference value: 32 ug/ml)
Staphylococcus aureus [17] = test: Inhibition of TetK overexpressed in Staphylococcus aureus K2192 assessed as decrease in tetracycline MIC at 25 uM after 24 hrs by broth checkerboard method relative to control
Staphylococcus aureus [18] = test: Inhibition of MsrA overexpressed in Staphylococcus aureus K2191 assessed as erythromycin MIC at 25 uM after 24 hrs by broth checkerboard method (reference value: 64 ug/ml)
Staphylococcus aureus [19] = test: Inhibition of MsrA overexpressed in Staphylococcus aureus K2191 assessed as decrease in erythromycin MIC at 25 uM after 24 hrs by broth checkerboard method relative to control
[20] = target: T3, Fluoroquinolone resistance protein (Staphylococcus aureus); test: Inhibition of MdeA overexpressed in Staphylococcus aureus Mupr-1 assessed as mupirocin MIC at 25 uM after 24 hrs by broth checkerboard method (reference value: 256 ug/ml)
[21] = target: T3, Fluoroquinolone resistance protein (Staphylococcus aureus); test: Inhibition of MdeA overexpressed in Staphylococcus aureus Mupr-1 assessed as decrease in mupirocin MIC at 25 uM after 24 hrs by broth checkerboard method relative to control

Chain of CYP2D6 (P10635 whole entry): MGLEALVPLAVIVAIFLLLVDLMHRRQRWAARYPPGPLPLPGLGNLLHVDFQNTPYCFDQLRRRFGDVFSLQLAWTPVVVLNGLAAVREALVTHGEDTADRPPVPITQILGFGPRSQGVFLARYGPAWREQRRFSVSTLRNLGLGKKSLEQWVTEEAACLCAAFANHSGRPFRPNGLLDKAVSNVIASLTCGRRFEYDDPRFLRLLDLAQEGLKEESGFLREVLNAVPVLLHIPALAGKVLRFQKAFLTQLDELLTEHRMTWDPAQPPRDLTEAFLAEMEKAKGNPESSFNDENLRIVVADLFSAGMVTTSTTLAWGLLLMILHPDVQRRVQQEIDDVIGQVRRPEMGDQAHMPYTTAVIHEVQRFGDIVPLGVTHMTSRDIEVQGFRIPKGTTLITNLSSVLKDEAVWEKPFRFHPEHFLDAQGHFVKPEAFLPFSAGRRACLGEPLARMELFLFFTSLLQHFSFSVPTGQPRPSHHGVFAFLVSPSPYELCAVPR
Chain of CYP3A4 (P08684 whole entry): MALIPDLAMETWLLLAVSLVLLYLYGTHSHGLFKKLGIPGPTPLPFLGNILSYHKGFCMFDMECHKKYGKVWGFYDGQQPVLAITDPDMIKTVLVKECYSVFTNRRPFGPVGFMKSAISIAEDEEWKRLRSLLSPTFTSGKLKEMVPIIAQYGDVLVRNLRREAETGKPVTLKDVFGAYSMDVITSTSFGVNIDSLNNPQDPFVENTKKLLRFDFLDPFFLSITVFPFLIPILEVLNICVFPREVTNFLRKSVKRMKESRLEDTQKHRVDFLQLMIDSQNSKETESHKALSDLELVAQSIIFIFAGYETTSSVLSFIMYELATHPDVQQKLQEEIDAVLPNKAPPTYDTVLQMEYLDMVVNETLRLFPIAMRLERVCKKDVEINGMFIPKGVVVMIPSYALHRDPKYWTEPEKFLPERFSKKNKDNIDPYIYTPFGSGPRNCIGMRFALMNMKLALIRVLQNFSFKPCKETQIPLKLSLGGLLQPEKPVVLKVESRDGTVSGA
Chain of CYP2C19 (P33261 whole entry): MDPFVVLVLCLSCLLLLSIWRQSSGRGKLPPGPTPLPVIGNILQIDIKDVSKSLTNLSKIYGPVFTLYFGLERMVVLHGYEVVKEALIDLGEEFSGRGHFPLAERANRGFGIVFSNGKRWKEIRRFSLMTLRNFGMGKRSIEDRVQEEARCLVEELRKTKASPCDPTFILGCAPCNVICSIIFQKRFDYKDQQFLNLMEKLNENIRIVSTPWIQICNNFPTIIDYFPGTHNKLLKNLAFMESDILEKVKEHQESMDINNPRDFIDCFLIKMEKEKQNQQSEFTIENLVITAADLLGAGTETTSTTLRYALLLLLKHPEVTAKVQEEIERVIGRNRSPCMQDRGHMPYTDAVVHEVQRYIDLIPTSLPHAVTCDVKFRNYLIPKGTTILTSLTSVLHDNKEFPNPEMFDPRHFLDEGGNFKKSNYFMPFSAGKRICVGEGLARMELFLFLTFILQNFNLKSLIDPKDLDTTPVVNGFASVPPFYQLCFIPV
Chain of CYP2C9 (P11712 whole entry): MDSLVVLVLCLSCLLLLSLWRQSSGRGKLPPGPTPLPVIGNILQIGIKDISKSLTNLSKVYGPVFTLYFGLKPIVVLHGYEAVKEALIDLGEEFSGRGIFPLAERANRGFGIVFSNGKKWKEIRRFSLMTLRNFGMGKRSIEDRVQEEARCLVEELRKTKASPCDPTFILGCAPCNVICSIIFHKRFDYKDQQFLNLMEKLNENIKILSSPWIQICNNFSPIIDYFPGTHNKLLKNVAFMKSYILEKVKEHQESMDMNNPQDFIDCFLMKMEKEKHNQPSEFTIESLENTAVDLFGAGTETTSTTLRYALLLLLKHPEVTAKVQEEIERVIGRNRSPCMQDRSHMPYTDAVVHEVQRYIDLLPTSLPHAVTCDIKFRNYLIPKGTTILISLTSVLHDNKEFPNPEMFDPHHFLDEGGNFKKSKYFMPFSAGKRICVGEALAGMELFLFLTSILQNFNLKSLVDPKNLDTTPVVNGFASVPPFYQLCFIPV

CC(=O)c1c(O)c(C)c(O)c(Cc2c3c(c(O)c4c2OC(c2ccccc2)CC4=O)C=CC(C)(C)O3)c1O (stereo unspecified)
inhibition (INH) [1]: Not Active
MIC [2]: 2 µg/mL
fold change (FC) [3]: 4
MIC (Staphylococcus aureus [4]): 32 µg/mL
fold change (FC) (Staphylococcus aureus [5]): 0
MIC (Staphylococcus aureus [6]): 64 µg/mL
fold change (FC) (Staphylococcus aureus [7]): 0
MIC [8]: 256 µg/mL
fold change (FC) [9]: 0

COc1ccc2ccc(=O)oc2c1CC=C(C)C [OSTHOLE]
inhibition (INH) [1]: Not Active
IC50 [10]: 34 µM
Papp A→B at 1.5 h, 10 µM (P-gp [11]): 26 ×10⁻⁶ cm/s
Papp B→A at 1.5 h, 10 µM (P-gp [12]): 35 ×10⁻⁶ cm/s
efflux ratio at 1.5 h, 10 µM (P-gp [13]): 1.3
inhibition at 10 µM (CYP3A4): 27.3%
inhibition at 10 µM (CYP2D6): 60.5%
inhibition at 10 µM (CYP2C9): 39.8%
inhibition at 10 µM (CYP2C19): 56.5%
MIC [14]: 2 µg/mL
fold change (FC) [15]: 4
MIC (Staphylococcus aureus [16]): 16 µg/mL
fold change (FC) (Staphylococcus aureus [17]): 2
MIC (Staphylococcus aureus [18]): 64 µg/mL
fold change (FC) (Staphylococcus aureus [19]): 0
MIC [20]: 256 µg/mL
fold change (FC) [21]: 0
